Results published in ChEMBL document CHEMBL1150266, “Design and synthesis of conformationally constrained glucagon-like peptide-1 derivatives with increased plasma stability and prolonged in vivo activity” (J Med Chem, 2008).
Where a SMILES comes first, the peptide text is derived from it. Bridges are numbered along the chain shown (N, C = ends). [ ]: non-standard residue; d: D form. Phe(4-COOH) = N[C@@H](Cc1ccc(C(=O)O)cc1)C(=O)O

Key:
[1] = target: T1, Glucagon-like peptide 1 receptor (Homo sapiens, UniProt P43220); assay: Displacement of [125I]GLP1 from human GLP1R expressed in CHOK1 cells; format: cell-based, CHO-K1
[2] = target: T1, Glucagon-like peptide 1 receptor; assay: Agonist activity at human GLP1R expressed in CHO cells assessed as increase in cAMP level by cAMP-response element/luciferase activation assay; format: functional, cell-based
[3] = test system: Plasma; assay: Stability in human plasma at 1000 ng/mL at 37 degC; format: ADME, cell-free

T1 sequence (P43220 whole entry): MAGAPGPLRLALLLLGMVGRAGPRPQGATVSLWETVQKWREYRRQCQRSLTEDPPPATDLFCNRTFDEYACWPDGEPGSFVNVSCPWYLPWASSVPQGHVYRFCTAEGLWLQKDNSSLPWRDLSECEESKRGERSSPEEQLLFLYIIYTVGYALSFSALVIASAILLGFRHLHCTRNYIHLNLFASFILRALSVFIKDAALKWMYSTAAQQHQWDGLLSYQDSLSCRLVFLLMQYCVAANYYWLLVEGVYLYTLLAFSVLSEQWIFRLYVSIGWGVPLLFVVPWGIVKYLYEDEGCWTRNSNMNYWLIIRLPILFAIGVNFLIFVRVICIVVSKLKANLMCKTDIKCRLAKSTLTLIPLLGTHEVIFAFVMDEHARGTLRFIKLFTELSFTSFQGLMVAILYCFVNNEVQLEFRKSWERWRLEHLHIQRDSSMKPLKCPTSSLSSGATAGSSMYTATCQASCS

IC50 [1] | EC50 [2] | SMILES | Stability [3]
17 nM | 0.077 nM | CC[C@H](C)[C@H](NC(=O)[C@H](Cc1ccccc1)NC(=O)[C@H](CCC(=O)O)NC(=O)[C@H](CCCCN)NC(=O)[C@H](C)NC(=O)[C@H](C)NC(=O)[C@@H]1CCCCNC(=O)CC[C@H](NC(=O)[C@H](CO)NC(=O)[C@H](CO)NC(=O)[C@@H](NC(=O)[C@H](CC(=O)O)NC(=O)[C@H](CO)NC(=O)[C@@H](NC(=O)[C@H](Cc2ccccc2)NC(=O)[C@@H](NC(=O)CNC(=O)[C@H](CCC(=O)O)NC(=O)CNC(=O)[C@@H](N)Cc2c[nH]cn2)[C@@H](C)O)[C@@H](C)O)C(C)C)C(=O)N[C@@H](CC(C)C)C(=O)N[C@@H](CCC(=O)O)C(=O)NCC(=O)N1)C(=O)N[C@@H](C)C(=O)N[C@@H](Cc1c[nH]c2ccccc12)C(=O)N[C@@H](CC(C)C)C(=O)N[C@H](C(=O)N[C@@H](CCCCN)C(=O)NCC(=O)N[C@@H](CCCNC(=N)N)C(=O)NCC(N)=O)C(C)C (H-HGEGTFTSDVSSELEGKAAKEFIAWLVKGRG-NH2; lactam 13-17) | –
2000 nM | 9 nM | CC[C@H](C)[C@H](NC(=O)[C@H](Cc1ccccc1)NC(=O)[C@H](CCC(=O)O)NC(=O)[C@@H]1CCCCNC(=O)c2ccc(cc2)C[C@H](NC(=O)[C@H](CO)NC(=O)[C@H](CO)NC(=O)[C@@H](NC(=O)[C@H](CC(=O)O)NC(=O)[C@H](CO)NC(=O)[C@@H](NC(=O)[C@H](Cc2ccccc2)NC(=O)[C@@H](NC(=O)CNC(=O)[C@H](CCC(=O)O)NC(=O)CNC(=O)[C@@H](N)Cc2c[nH]cn2)[C@@H](C)O)[C@@H](C)O)C(C)C)C(=O)N[C@@H](CC(C)C)C(=O)N[C@@H](CCC(=O)O)C(=O)NCC(=O)N[C@@H](CCC(N)=O)C(=O)N[C@@H](C)C(=O)N[C@@H](C)C(=O)N1)C(=O)N[C@@H](C)C(=O)N[C@@H](Cc1c[nH]c2ccccc12)C(=O)N[C@@H](CC(C)C)C(=O)N[C@H](C(=O)N[C@@H](CCCCN)C(=O)NCC(=O)N[C@@H](CCCNC(=N)N)C(=O)NCC(N)=O)C(C)C (H-HGEGTFTSDVSS[Phe(4-COOH)]LEGQAAKEFIAWLVKGRG-NH2; lactam 13-20) | –
3.6 nM | 0.006 nM | CC[C@H](C)[C@H](NC(=O)[C@H](Cc1ccccc1)NC(=O)[C@H](CCC(=O)O)NC(=O)[C@H](CCCCN)NC(=O)[C@H](C)NC(=O)[C@H](C)NC(=O)[C@H](CCC(N)=O)NC(=O)[C@@H]1CCCCNC(=O)CC[C@H](NC(=O)[C@H](CO)NC(=O)[C@@H](NC(=O)[C@H](CC(=O)O)NC(=O)[C@H](CO)NC(=O)[C@@H](NC(=O)[C@H](Cc2ccccc2)NC(=O)[C@@H](NC(=O)CNC(=O)[C@H](CCC(=O)O)NC(=O)CNC(=O)[C@@H](N)Cc2cnc[nH]2)[C@@H](C)O)[C@@H](C)O)C(C)C)C(=O)N[C@@H](Cc2ccc(O)cc2)C(=O)N[C@@H](CC(C)C)C(=O)N[C@@H](CCC(=O)O)C(=O)N1)C(=O)N[C@@H](C)C(=O)N[C@@H](Cc1c[nH]c2ccccc12)C(=O)N[C@@H](CC(C)C)C(=O)N[C@H](C(=O)N[C@@H](CCCCN)C(=O)NCC(=O)N[C@@H](CCCNC(=N)N)C(=O)NCC(N)=O)C(C)C (H-HGEGTFTSDVSEYLEKQAAKEFIAWLVKGRG-NH2; lactam 12-16) | Stable
> 1000 nM | 15 nM | CC(C)C[C@H](NC(=O)[C@H](Cc1ccc(O)cc1)NC(=O)[C@H](CO)NC(=O)[C@H](CO)NC(=O)[C@@H](NC(=O)[C@H](CC(=O)O)NC(=O)[C@H](CO)NC(=O)[C@@H](NC(=O)[C@H](Cc1ccccc1)NC(=O)[C@@H](NC(=O)CNC(=O)[C@H](CCC(=O)O)NC(=O)CNC(=O)[C@@H](N)Cc1c[nH]cn1)[C@@H](C)O)[C@@H](C)O)C(C)C)C(=O)N[C@@H](CCC(=O)O)C(=O)NCC(=O)N[C@@H](CCC(N)=O)C(=O)N[C@@H](C)C(=O)N[C@H]1CCC(=O)NCCCC[C@@H](C(=O)N[C@@H](C)C(=O)N[C@@H](Cc2c[nH]c3ccccc23)C(=O)N[C@@H](CC(C)C)C(=O)N[C@H](C(=O)N[C@@H](CCCCN)C(=O)NCC(=O)N[C@@H](CCCNC(=N)N)C(=O)NCC(N)=O)C(C)C)NC(=O)[C@H](Cc2ccccc2)NC(=O)[C@H](CCC(=O)O)NC(=O)[C@H](CCCCN)NC1=O (H-HGEGTFTSDVSSYLEGQAEKEFKAWLVKGRG-NH2; lactam 19-23) | –
6.2 nM | 0.004 nM | CC[C@H](C)[C@H](NC(=O)[C@H](Cc1ccccc1)NC(=O)[C@H](CCC(=O)O)NC(=O)[C@@H]1CCCCNC(=O)CCC[C@H](NC(=O)[C@H](CCC(=O)O)NC(=O)[C@H](CC(C)C)NC(=O)[C@H](Cc2ccc(O)cc2)NC(=O)[C@H](CO)NC(=O)[C@H](CO)NC(=O)[C@@H](NC(=O)[C@H](CC(=O)O)NC(=O)[C@H](CO)NC(=O)[C@@H](NC(=O)[C@H](Cc2ccccc2)NC(=O)[C@@H](NC(=O)CNC(=O)[C@H](CCC(=O)O)NC(=O)CNC(=O)[C@@H](N)Cc2c[nH]cn2)[C@@H](C)O)[C@@H](C)O)C(C)C)C(=O)N[C@@H](CCC(N)=O)C(=O)N[C@@H](C)C(=O)N[C@@H](C)C(=O)N1)C(=O)N[C@@H](C)C(=O)N[C@@H](Cc1c[nH]c2ccccc12)C(=O)N[C@@H](CC(C)C)C(=O)N[C@H](C(=O)N[C@@H](CCCCN)C(=O)NCC(=O)N[C@@H](CCCNC(=N)N)C(=O)NCC(N)=O)C(C)C | –
> 500 nM | 1.8 nM | CC[C@H](C)[C@H](NC(=O)[C@H](Cc1ccccc1)NC(=O)[C@H](CCC(=O)O)NC(=O)[C@@H]1CCCCNC(=O)CC[C@H](NC(=O)[C@H](CCC(=O)O)NC(=O)[C@H](CC(C)C)NC(=O)[C@H](Cc2ccc(O)cc2)NC(=O)[C@H](CO)NC(=O)[C@H](CO)NC(=O)[C@@H](NC(=O)[C@H](CC(=O)O)NC(=O)[C@H](CO)NC(=O)[C@@H](NC(=O)[C@H](Cc2ccccc2)NC(=O)[C@@H](NC(=O)CNC(=O)[C@H](CCC(=O)O)NC(=O)CNC(=O)[C@@H](N)Cc2c[nH]cn2)[C@@H](C)O)[C@@H](C)O)C(C)C)CC(=O)N[C@@H](CCC(N)=O)C(=O)N[C@@H](C)C(=O)N[C@@H](C)C(=O)N1)C(=O)N[C@@H](C)C(=O)N[C@@H](Cc1c[nH]c2ccccc12)C(=O)N[C@@H](CC(C)C)C(=O)N[C@H](C(=O)N[C@@H](CCCCN)C(=O)NCC(=O)N[C@@H](CCCNC(=N)N)C(=O)NCC(N)=O)C(C)C | –
16 nM | 0.024 nM | CC[C@H](C)[C@@H]1NC(=O)[C@H](Cc2ccccc2)NC(=O)[C@H](CCC(=O)O)NC(=O)[C@@H](NC(=O)[C@H](C)NC(=O)[C@H](C)NC(=O)[C@H](CCC(N)=O)NC(=O)CNC(=O)[C@H](CCC(=O)O)NC(=O)[C@H](CC(C)C)NC(=O)[C@H](Cc2ccc(O)cc2)NC(=O)[C@H](CO)NC(=O)[C@H](CO)NC(=O)[C@@H](NC(=O)[C@H](CC(=O)O)NC(=O)[C@H](CO)NC(=O)[C@@H](NC(=O)[C@H](Cc2ccccc2)NC(=O)[C@@H](NC(=O)CNC(=O)[C@H](CCC(=O)O)NC(=O)CNC(=O)[C@@H](N)Cc2cnc[nH]2)[C@@H](C)O)[C@@H](C)O)C(C)C)CCC(=O)NCCCC[C@@H](C(=O)N[C@@H](Cc2c[nH]c3ccccc23)C(=O)N[C@@H](CC(C)C)C(=O)N[C@H](C(=O)N[C@@H](CCCCN)C(=O)NCC(=O)N[C@@H](CCCNC(=N)N)C(=O)NCC(N)=O)C(C)C)NC1=O | –
64 nM | 0.14 nM | CC[C@H](C)[C@H](NC(=O)[C@H](Cc1ccccc1)NC(=O)[C@H](CCC(=O)O)NC(=O)[C@@H]1CCCCNC(=O)C[C@H](NC(=O)[C@H](CCC(=O)O)NC(=O)[C@H](CC(C)C)NC(=O)[C@H](Cc2ccc(O)cc2)NC(=O)[C@H](CO)NC(=O)[C@H](CO)NC(=O)[C@@H](NC(=O)[C@H](CC(=O)O)NC(=O)[C@H](CO)NC(=O)[C@@H](NC(=O)[C@H](Cc2ccccc2)NC(=O)[C@@H](NC(=O)CNC(=O)[C@H](CCC(=O)O)NC(=O)CNC(=O)[C@@H](N)Cc2c[nH]cn2)[C@@H](C)O)[C@@H](C)O)C(C)C)C(=O)N[C@@H](CCC(N)=O)C(=O)N[C@@H](C)C(=O)N[C@@H](C)C(=O)N1)C(=O)N[C@@H](C)C(=O)N[C@@H](Cc1c[nH]c2ccccc12)C(=O)N[C@@H](CC(C)C)C(=O)N[C@H](C(=O)N[C@@H](CCCCN)C(=O)NCC(=O)N[C@@H](CCCNC(=N)N)C(=O)NCC(N)=O)C(C)C (H-HGEGTFTSDVSSYLEDQAAKEFIAWLVKGRG-NH2; lactam 16-20) | –

SMILES | IC50 [1] | EC50 [2] | Stability [3]
CC[C@H](C)[C@H](NC(=O)[C@H](Cc1ccccc1)NC(=O)[C@H](CCC(=O)O)NC(=O)[C@@H]1CCC(=O)NCCCC[C@H](NC(=O)[C@H](CCC(=O)O)NC(=O)[C@H](CC(C)C)NC(=O)[C@H](Cc2ccc(O)cc2)NC(=O)[C@H](CO)NC(=O)[C@H](CO)NC(=O)[C@@H](NC(=O)[C@H](CC(=O)O)NC(=O)[C@H](CO)NC(=O)[C@@H](NC(=O)[C@H](Cc2ccccc2)NC(=O)[C@@H](NC(=O)CNC(=O)[C@H](CCC(=O)O)NC(=O)CNC(=O)[C@@H](N)Cc2c[nH]cn2)[C@@H](C)O)[C@@H](C)O)C(C)C)C(=O)N[C@@H](CCC(N)=O)C(=O)N[C@@H](C)C(=O)N[C@@H](C)C(=O)N1)C(=O)N[C@@H](C)C(=O)N[C@@H](Cc1c[nH]c2ccccc12)C(=O)N[C@@H](CC(C)C)C(=O)N[C@H](C(=O)N[C@@H](CCCCN)C(=O)NCC(=O)N[C@@H](CCCNC(=N)N)C(=O)NCC(N)=O)C(C)C (H-HGEGTFTSDVSSYLEKQAAEEFIAWLVKGRG-NH2; lactam 16-20) | 2.7 nM | 0.008 nM | –
CC[C@H](C)[C@H](NC(=O)[C@H](Cc1ccccc1)NC(=O)[C@H](CCC(=O)O)NC(=O)[C@H](CCCCN)NC(=O)[C@H](C)NC(=O)[C@H](C)NC(=O)[C@H](CCC(N)=O)NC(=O)C(C)(C)NC(=O)[C@H](CCC(=O)O)NC(=O)[C@H](CC(C)C)NC(=O)[C@H](Cc1ccc(O)cc1)NC(=O)[C@H](CO)NC(=O)[C@H](CO)NC(=O)[C@@H](NC(=O)[C@H](CC(=O)O)NC(=O)[C@H](CO)NC(=O)[C@@H](NC(=O)[C@H](Cc1ccccc1)NC(=O)[C@@H](NC(=O)CNC(=O)[C@H](CCC(=O)O)NC(=O)CNC(=O)[C@@H](N)Cc1c[nH]cn1)[C@@H](C)O)[C@@H](C)O)C(C)C)C(=O)N[C@@H](C)C(=O)N[C@@H](Cc1c[nH]c2ccccc12)C(=O)N[C@@H](CC(C)C)C(=O)N[C@H](C(=O)N[C@@H](CCCCN)C(=O)NCC(=O)N[C@@H](CCCNC(=N)N)C(=O)NCC(N)=O)C(C)C | 2.9 nM | – | Stable
